Results reported in PMC9030254, “Target Hopping from Protein Kinases to PXR: Identification of Small-Molecule Protein Kinase Inhibitors as Selective Modulators of Pregnane X Receptor from TüKIC Library” (Cells, 2022).

Tests used:
Experiment in all cases: Kinase profiling
Type in all cases: biochemical
CK2alpha1 = molecular target: T1, CK2alpha1 (Homo sapiens, UniProt P68400)
T1 construct: purchased ProQinase (Freiburg, Germany)
Description: (§1) The analysis was performed by ProQinase (Freiburg, Germany).

IRAK4 = molecular target: T2, IRAK4 (Homo sapiens, UniProt Q9NWZ3)
T2 construct: purchased ProQinase (Freiburg, Germany)
T2 sequence (Q9NWZ3 1-460): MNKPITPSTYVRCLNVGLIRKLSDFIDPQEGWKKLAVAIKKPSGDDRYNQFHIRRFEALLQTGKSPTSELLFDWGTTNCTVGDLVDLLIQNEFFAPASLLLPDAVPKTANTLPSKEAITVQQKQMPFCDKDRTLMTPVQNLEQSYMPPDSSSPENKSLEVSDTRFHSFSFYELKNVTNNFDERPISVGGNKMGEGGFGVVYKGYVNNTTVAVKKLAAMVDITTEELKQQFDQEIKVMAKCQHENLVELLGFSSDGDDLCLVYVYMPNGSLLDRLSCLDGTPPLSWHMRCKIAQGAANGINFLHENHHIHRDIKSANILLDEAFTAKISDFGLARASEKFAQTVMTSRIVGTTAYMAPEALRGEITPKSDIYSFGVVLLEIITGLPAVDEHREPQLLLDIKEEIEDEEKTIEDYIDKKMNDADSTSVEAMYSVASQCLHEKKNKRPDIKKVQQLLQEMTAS
Description: as §1

ULK2 = molecular target: T3, ULK2 (Homo sapiens, UniProt Q8IYT8)
T3 construct: purchased ProQinase (Freiburg, Germany)
T3 sequence (Q8IYT8 1-1036): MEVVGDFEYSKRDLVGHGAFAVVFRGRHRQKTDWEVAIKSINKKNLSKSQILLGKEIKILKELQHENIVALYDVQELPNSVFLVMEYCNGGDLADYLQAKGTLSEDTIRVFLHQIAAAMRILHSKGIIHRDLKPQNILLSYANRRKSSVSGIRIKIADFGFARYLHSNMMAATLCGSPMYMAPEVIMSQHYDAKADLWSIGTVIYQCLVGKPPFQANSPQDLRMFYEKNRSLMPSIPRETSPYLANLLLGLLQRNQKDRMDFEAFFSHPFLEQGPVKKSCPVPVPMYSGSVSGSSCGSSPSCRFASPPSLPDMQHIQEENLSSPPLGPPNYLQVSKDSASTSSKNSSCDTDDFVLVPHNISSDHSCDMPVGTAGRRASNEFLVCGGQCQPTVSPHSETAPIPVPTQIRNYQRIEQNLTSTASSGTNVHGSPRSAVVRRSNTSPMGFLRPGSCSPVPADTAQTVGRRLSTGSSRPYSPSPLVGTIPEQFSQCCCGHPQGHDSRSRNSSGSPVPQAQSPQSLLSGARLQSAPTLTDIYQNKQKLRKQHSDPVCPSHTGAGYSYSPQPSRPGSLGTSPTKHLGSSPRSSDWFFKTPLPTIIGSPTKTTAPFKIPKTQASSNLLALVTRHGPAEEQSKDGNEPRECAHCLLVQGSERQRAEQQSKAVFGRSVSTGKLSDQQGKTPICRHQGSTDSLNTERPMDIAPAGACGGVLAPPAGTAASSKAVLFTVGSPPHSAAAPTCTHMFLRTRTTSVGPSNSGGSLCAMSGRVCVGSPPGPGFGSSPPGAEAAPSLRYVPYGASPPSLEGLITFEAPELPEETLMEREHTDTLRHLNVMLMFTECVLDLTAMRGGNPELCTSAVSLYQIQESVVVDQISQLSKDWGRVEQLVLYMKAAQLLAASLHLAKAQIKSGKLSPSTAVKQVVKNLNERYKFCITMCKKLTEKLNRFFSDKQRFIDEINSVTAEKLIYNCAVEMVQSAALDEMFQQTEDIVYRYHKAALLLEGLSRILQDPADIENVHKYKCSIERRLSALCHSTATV
Description: as §1

TSSK1 = molecular target: T4, TSSK1 (Homo sapiens, UniProt Q9BXA7)
T4 construct: purchased ProQinase (Freiburg, Germany)
T4 sequence (Q9BXA7 1-367): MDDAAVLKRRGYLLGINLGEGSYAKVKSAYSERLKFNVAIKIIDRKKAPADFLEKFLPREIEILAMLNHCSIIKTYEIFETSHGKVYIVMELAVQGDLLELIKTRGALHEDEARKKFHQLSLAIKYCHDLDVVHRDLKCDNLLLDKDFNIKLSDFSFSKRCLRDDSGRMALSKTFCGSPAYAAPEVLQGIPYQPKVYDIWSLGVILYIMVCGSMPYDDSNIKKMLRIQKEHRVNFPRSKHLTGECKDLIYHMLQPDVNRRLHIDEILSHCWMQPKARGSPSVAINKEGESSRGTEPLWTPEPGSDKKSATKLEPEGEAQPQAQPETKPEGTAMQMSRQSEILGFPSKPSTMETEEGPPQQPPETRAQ
Description: as §1

PHKG1 = molecular target: T5, PHKG1 (Homo sapiens, UniProt Q16816)
T5 construct: purchased ProQinase (Freiburg, Germany)
Description: as §1

BTK = molecular target: T6, BTK (Homo sapiens, UniProt Q06187)
T6 construct: purchased ProQinase (Freiburg, Germany)
Description: as §1

JNK2 = molecular target: T7, JNK2 (Homo sapiens, UniProt P45984)
T7 construct: purchased ProQinase (Freiburg, Germany)
Description: as §1

CDK20/CycH = molecular target: T8, CDK20/CycH (Homo sapiens, UniProt Q8IZL9)
T8 construct: purchased ProQinase (Freiburg, Germany)
Description: as §1

ACVR1 = molecular target: T9, ACVR1 (Homo sapiens, UniProt Q04771)
T9 construct: purchased ProQinase (Freiburg, Germany)
T9 sequence (Q04771 21-509): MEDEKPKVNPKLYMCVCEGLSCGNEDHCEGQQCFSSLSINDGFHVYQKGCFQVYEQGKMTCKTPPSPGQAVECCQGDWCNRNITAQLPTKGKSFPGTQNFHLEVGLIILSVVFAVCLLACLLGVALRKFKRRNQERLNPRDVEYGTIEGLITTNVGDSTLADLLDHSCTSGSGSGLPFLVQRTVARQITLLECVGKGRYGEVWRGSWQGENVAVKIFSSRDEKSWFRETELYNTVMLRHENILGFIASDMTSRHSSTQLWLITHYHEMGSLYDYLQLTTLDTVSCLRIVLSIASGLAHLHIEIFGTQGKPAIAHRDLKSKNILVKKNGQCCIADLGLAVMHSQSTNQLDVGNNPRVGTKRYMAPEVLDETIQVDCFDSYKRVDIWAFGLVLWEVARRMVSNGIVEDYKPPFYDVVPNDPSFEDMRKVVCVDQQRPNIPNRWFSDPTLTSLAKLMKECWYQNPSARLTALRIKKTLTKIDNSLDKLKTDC
Description: as §1

TRKB = molecular target: T10, TRKB (Homo sapiens, UniProt Q16620)
T10 construct: purchased ProQinase (Freiburg, Germany)
Description: as §1

T7 sequence (P45984 whole entry): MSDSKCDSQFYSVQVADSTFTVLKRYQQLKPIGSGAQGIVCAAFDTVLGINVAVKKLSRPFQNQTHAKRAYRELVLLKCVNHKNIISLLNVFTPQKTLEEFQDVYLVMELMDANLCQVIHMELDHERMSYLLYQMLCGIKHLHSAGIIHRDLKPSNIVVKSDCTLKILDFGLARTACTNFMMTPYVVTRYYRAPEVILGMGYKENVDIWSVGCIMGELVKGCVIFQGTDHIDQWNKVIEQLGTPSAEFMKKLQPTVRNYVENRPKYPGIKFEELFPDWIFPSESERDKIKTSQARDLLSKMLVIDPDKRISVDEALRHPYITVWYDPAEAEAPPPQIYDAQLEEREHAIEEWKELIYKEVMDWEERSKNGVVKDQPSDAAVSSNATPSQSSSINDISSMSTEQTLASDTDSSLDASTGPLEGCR
T8 sequence (Q8IZL9 whole entry): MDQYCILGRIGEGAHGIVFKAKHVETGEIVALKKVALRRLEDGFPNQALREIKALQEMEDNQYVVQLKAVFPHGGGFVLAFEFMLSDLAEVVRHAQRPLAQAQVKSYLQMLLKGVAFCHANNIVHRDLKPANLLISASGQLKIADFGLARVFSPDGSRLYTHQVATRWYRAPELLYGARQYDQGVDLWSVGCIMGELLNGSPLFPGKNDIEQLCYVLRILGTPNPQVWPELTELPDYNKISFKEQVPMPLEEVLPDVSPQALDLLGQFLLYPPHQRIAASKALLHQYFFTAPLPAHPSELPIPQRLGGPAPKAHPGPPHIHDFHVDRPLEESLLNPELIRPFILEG
T8 sequence (P51946 whole entry partner): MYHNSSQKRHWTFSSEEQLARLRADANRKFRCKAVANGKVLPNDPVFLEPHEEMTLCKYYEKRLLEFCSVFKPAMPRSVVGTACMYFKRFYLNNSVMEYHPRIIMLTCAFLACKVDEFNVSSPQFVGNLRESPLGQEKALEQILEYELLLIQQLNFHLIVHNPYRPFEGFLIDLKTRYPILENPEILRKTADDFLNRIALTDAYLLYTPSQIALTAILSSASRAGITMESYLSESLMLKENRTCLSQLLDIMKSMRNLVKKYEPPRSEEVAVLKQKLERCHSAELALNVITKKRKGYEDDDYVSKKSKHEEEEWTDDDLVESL
T1 sequence (P68400 whole entry): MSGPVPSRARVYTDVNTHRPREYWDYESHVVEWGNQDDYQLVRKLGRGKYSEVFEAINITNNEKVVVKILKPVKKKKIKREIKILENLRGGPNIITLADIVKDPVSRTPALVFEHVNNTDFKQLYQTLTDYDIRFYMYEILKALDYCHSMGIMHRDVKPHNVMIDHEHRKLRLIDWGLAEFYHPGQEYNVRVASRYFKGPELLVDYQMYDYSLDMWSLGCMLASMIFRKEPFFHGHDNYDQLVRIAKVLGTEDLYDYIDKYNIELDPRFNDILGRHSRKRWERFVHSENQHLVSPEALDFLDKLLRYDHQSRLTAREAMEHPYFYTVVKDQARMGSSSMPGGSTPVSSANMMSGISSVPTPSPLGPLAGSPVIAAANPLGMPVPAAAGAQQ
T10 sequence (Q16620 32-822): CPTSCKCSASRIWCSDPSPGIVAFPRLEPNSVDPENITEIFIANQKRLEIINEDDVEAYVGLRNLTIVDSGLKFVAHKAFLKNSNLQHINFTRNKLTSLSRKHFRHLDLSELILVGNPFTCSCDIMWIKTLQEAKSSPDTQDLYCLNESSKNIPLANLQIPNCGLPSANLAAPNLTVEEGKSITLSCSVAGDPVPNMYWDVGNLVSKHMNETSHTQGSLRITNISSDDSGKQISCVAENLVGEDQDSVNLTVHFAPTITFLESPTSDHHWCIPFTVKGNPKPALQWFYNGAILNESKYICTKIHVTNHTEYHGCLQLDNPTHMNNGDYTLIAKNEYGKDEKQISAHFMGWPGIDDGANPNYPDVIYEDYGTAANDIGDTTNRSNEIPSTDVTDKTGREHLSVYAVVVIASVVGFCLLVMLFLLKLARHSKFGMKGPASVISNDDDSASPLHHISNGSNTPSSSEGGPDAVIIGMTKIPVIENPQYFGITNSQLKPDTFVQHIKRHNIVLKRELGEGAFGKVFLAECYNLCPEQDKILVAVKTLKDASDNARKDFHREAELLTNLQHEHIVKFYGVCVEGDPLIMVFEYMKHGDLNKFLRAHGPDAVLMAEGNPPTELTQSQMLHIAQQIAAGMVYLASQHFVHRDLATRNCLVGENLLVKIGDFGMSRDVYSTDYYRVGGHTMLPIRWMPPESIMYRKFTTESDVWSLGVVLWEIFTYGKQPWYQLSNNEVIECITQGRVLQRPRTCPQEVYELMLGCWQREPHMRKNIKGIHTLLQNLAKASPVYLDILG
T5 sequence (Q16816 whole entry): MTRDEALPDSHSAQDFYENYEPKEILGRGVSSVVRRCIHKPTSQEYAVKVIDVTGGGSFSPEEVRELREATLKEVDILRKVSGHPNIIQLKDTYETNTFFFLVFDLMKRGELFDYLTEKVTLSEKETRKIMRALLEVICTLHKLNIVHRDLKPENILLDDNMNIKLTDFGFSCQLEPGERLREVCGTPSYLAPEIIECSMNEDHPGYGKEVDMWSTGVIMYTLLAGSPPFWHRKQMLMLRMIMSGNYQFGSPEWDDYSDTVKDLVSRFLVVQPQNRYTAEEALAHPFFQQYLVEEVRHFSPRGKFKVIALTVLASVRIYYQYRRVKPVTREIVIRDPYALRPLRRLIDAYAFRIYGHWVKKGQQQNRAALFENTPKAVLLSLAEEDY
T6 sequence (Q06187 whole entry): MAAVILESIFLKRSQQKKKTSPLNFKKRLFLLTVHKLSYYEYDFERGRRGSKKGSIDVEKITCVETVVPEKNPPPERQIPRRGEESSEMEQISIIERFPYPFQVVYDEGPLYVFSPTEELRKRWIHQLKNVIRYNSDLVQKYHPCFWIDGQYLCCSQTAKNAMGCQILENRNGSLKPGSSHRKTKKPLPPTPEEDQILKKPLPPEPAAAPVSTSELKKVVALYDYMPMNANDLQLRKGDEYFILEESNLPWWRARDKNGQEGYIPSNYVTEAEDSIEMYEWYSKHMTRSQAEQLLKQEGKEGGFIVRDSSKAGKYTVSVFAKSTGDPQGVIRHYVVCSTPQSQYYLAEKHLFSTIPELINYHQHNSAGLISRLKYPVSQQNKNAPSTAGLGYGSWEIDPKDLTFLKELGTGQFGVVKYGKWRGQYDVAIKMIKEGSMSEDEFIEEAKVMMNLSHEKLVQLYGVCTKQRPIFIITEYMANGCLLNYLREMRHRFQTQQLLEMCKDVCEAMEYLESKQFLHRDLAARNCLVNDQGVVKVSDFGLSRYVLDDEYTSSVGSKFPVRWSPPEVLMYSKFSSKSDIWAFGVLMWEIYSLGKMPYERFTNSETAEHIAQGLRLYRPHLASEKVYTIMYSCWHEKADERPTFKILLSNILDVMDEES

Question: With O=C(Cc1ccccc1)Nc1ccc(F)c(Nc2ccc3c(c2)CCCCC3=O)c1 [Compound 100] as the molecule, how does the Residual activity (CK2alpha1; 1.0E-05 M) read?
Answer: 106 % of control

Question: What about the Residual activity (CK2alpha1; 1.0E-06 M) of the same molecule?
Answer: 102 % of control

Question: And the Residual activity (IRAK4; 1.0E-05 M)?
Answer: 100 % of control

Question: And the Residual activity (IRAK4; 1.0E-06 M)?
Answer: 97 % of control

Question: And the Residual activity (ULK2; 1.0E-05 M)?
Answer: 103 % of control

Question: And the Residual activity (ULK2; 1.0E-06 M)?
Answer: 113 % of control

Question: And the Residual activity (TSSK1; 1.0E-05 M)?
Answer: 105 % of control

Question: And the Residual activity (TSSK1; 1.0E-06 M)?
Answer: 112 % of control

Question: What about the Residual activity (PHKG1; 1.0E-05 M) of the same molecule?
Answer: 75 % of control

Question: And the Residual activity (PHKG1; 1.0E-06 M)?
Answer: 95 % of control

Question: And the Residual activity (BTK; 1.0E-05 M)?
Answer: 78 % of control

Question: And the Residual activity (BTK; 1.0E-06 M)?
Answer: 99 % of control

Question: And the Residual activity (JNK2; 1.0E-05 M)?
Answer: 79 % of control

Question: What about the Residual activity (JNK2; 1.0E-06 M) of the same molecule?
Answer: 87 % of control

Question: What about the Residual activity (CDK20/CycH; 1.0E-05 M) of the same molecule?
Answer: 98 % of control

Question: What about the Residual activity (CDK20/CycH; 1.0E-06 M) of the same molecule?
Answer: 103 % of control

Question: And the Residual activity (ACVR1; 1.0E-05 M)?
Answer: 93 % of control

Question: And the Residual activity (ACVR1; 1.0E-06 M)?
Answer: 97 % of control

Question: And the Residual activity (TRKB; 1.0E-05 M)?
Answer: 74 % of control

Question: And the Residual activity (TRKB; 1.0E-06 M)?
Answer: 105 % of control

Question: For O=C(Nc1ccc(F)c(Nc2ccc3c(c2)CCCCC3=O)c1)c1cccc(F)c1 [Compound 109], which Residual activity (CK2alpha1; 1.0E-05 M) is on record?
Answer: 98 % of control

Question: And the Residual activity (CK2alpha1; 1.0E-06 M)?
Answer: 102 % of control

Question: What about the Residual activity (IRAK4; 1.0E-05 M) of the same molecule?
Answer: 93 % of control

Question: And the Residual activity (IRAK4; 1.0E-06 M)?
Answer: 92 % of control

Question: What about the Residual activity (ULK2; 1.0E-05 M) of the same molecule?
Answer: 113 % of control

Question: And the Residual activity (ULK2; 1.0E-06 M)?
Answer: 99 % of control

Question: What about the Residual activity (TSSK1; 1.0E-05 M) of the same molecule?
Answer: 102 % of control

Question: What about the Residual activity (TSSK1; 1.0E-06 M) of the same molecule?
Answer: 102 % of control

Question: What about the Residual activity (PHKG1; 1.0E-05 M) of the same molecule?
Answer: 86 % of control

Question: What about the Residual activity (PHKG1; 1.0E-06 M) of the same molecule?
Answer: 96 % of control

Question: And the Residual activity (BTK; 1.0E-05 M)?
Answer: 91 % of control

Question: What about the Residual activity (BTK; 1.0E-06 M) of the same molecule?
Answer: 99 % of control

Question: What about the Residual activity (JNK2; 1.0E-05 M) of the same molecule?
Answer: 97 % of control

Question: What about the Residual activity (JNK2; 1.0E-06 M) of the same molecule?
Answer: 88 % of control

Question: What about the Residual activity (CDK20/CycH; 1.0E-05 M) of the same molecule?
Answer: 121 % of control

Question: What about the Residual activity (CDK20/CycH; 1.0E-06 M) of the same molecule?
Answer: 110 % of control

Question: And the Residual activity (ACVR1; 1.0E-05 M)?
Answer: 97 % of control

Question: And the Residual activity (ACVR1; 1.0E-06 M)?
Answer: 88 % of control

Question: What about the Residual activity (TRKB; 1.0E-05 M) of the same molecule?
Answer: 92 % of control

Question: What about the Residual activity (TRKB; 1.0E-06 M) of the same molecule?
Answer: 101 % of control
